# PubChem BioAssay AID1996
# Conditions: buffer; pH 7.4; 200.0 µM
row,SMILES,solubility kinetic [mg/mL]
1,CC(C(=O)C12CC3CC(CC(C3)C1)C2)N1CCOCC1.Cl (centres undefined),> 0.0471
2,Cc1cc2ccccn2c1C(=O)c1ccccc1Br,0.0081
3,NS(=O)(=O)c1ccc(S(=O)(=O)c2ccccc2)nc1,> 0.0447
4,O=C(Cc1ccc(F)cc1)N1CCN=C1SCc1cccc([N+](=O)[O-])c1,0.0094
5,Cc1cc(Cl)nc(-c2ccccc2)n1,0.0003
6,COc1cc(OC)c(C(=S)N2CCCC2)cc1OC,0.0389
7,CC(C)Oc1ccc(C(CC(=O)N2CCOCC2)C(C)C)cc1 (centres undefined),> 0.0479
8,CCN1CCN(C(=O)/C=C/c2cccc(Cl)c2)CC1,0.04
9,Cc1ccc(C(=O)Nc2cccc3cccnc23)cc1C,< 0.0003
10,Cc1ccc(C2CN(C)CC2C(=O)c2ccc(F)cc2)cc1 (centres undefined),0.0358
11,Cn1cc(/C=C(\C#N)C(=O)Nc2ccccc2O)c2ccccc21,< 0.0002
12,Cc1ccc(N=C2C(=O)Nc3ccc(C)c(Br)c32)cc1,0.0326
13,O=c1nc(/C=C/c2ccc(Cl)cc2Cl)cc(C(F)(F)F)[nH]1,0.0073
14,CC1C(=O)Nc2ccccc2N1C(=O)c1ccc(Cl)cc1 (centres undefined),0.0274
15,CCCCCCC1CC(=O)NC(=S)N1 (centres undefined),0.0284
16,COc1ccc(-c2cc(=O)oc3c(C)c(OCC(=O)N(C)C)ccc23)cc1,0.0096
17,O.O=C([O-])c1ccn2c(C(=O)c3ccccc3)c(-c3ccccc3)cc2c1,> 0.0524
18,COC(=O)C1CCN(C(=O)/C(C)=C\c2ccccc2)CC1,0.041
19,O=C(Cc1ccccc1[N+](=O)[O-])OCN1C(=O)c2ccccc2C1=O,0.0137
20,CC(NC(=O)c1cc(F)c(F)cc1Cl)c1ccncc1 (centres undefined),> 0.0445
21,CN(C)CCCNC(=S)Nc1ccc(-c2ccccc2)cc1,0.0428
22,COc1cc(C(=O)NC(=S)N2CCCCCC2)cc(OC)c1OC,0.0158
23,CCOC(=O)CN1C(=O)C2(OCCCO2)c2cc(Br)ccc21,0.0315
24,Cn1c(CN2CCN(CCO)CC2)c(C#N)c2ccccc21,> 0.0448

row,SMILES,solubility kinetic [mg/mL]
1,Cc1ccc(/C=N\NC(=O)C2CC(=O)N(c3ccccc3)C2)o1 (centres undefined),> 0.0467
2,O=C(O/N=C/c1ccc(Cl)cc1)C1CCCCC1,0.0024
3,CS(=O)(=O)N1Cc2ccccc2CC1C(=O)OCC(=O)NCCc1ccc(S(N)(=O)=O)cc1 (centres undefined),0.0591
4,Cc1ccc(C(=O)Nc2c[nH]c(=O)[nH]c2=O)cc1,0.0079
5,O=C(NCCc1cnc[nH]1)c1cccs1,> 0.0332
6,CCOC(=O)c1c(C)[nH]c(C)c1S(=O)(=O)N1CCCCC1,> 0.0472
7,CC1CC(=O)Nc2ccccc2N1C(=O)Nc1ccccc1 (centres undefined),0.0302
8,COc1ccc(NC(=S)N(CCO)Cc2ccccc2)cc1,0.0447
9,NC(=O)COC(=O)CCCSc1nc2ccccc2s1,> 0.0466
10,Cc1cc(-n2c(C)cc(C(=O)CN3C(=O)C(=O)N(C)C3=O)c2C)no1,> 0.0516
11,COCCNC(=O)Cn1cc(C(=O)c2ccco2)c2ccccc21,> 0.049
12,O=C(COC(=O)C1CC2C=CC1C2)Nc1c(Br)cc([N+](=O)[O-])cc1Br (centres undefined),0.0572
13,O=C(CN1C(=O)NC2(CCCC2)C1=O)N1CCN(c2ccccc2O)CC1,> 0.0559
14,CC(Oc1cccnc1[N+](=O)[O-])C(=O)N1CCc2ccccc21 (centres undefined),> 0.047
15,CCCc1cnc(N2CCN(C(=O)c3c(-c4ccccc4)noc3C)CC2)nc1,0.0407
16,Cc1ccsc1/C=N/NC(=O)C1CC(=O)N(c2ccc(F)cc2)C1 (centres undefined),> 0.0518
17,Cc1cc(C(C)(C)C)cc(S(=O)(=O)Nc2ccc(C(=O)O)cc2)c1C,0.0408
18,Cc1cc(C(=O)OCC(=O)Nc2cccc([N+](=O)[O-])c2)c(C)o1,0.0038
19,NC(=O)c1ccc(NCCc2ccccc2)c([N+](=O)[O-])c1,0.005
20,CN1C(=O)C(=Cc2coc3ccccc3c2=O)C(=O)N(C)C1=O,> 0.0468
21,Fc1ccc(CNc2ncnc3cc(Cl)ccc23)cc1,0.0035
22,CCc1ccc(OCC(=O)N2CCc3ccccc32)cc1,0.0009
23,CCC(=O)N1CCN=C1SCc1cc(C)ccc1C,0.0356
24,CCNC(C(=O)c1c[nH]c2c(CC)cccc12)c1ccccc1 (centres undefined),0.0432

row,SMILES,solubility kinetic [mg/mL]
1,COc1ccc(S(=O)(=O)N2CCNC(=O)CC2)cc1,0.0351
2,CCN1C=C(C(=O)OC)C(c2cccc(OC)c2OC)C(C(=O)OC)=C1,0.0084
3,CSc1nsc(SCC(=O)Nc2ccc(F)cc2F)n1,> 0.05
4,CC1CCCC(NC(=O)/C=C/c2c(F)cccc2Cl)C1C (centres undefined),0.0009
5,Cc1ccc(S(=O)(=O)Nc2nc(C)c(C(=O)NN)s2)cc1,> 0.049
6,Cc1ccc(C(=O)NCC(=O)NCC(c2cccs2)N(C)C)cc1C (centres undefined),> 0.0539
7,Cn1c(N)c(Br)c(-c2ccc(F)cc2)c(C#N)c1=O,0.008
8,COc1ccccc1OCC(O)CN1CCN(CC(=O)Nc2c(C)cccc2C)CC1.Cl (centres undefined),> 0.0751
9,CC(C)(CO)CNC1CCCN(C2Cc3ccccc3C2)C1 (centres undefined),0.0405
10,CCc1cccc(C)c1NC(=O)CSc1nc(C)c(C)o1,> 0.0457
11,CCOc1ccc2nc(NC(=O)C3(C)CC3(Br)Br)sc2c1 (centres undefined),0.0084
12,O=C(O)c1cc(NS(=O)(=O)c2ccc(F)cc2)cc(NS(=O)(=O)c2ccc(F)cc2)c1,> 0.0703
13,N#Cc1cccnc1N1CCN(C(=O)COCC(=O)O)CC1,0.041
14,FC(F)(F)c1ccccc1NC(=S)Nc1ccccc1,0.0216
15,Cc1ccc(OCC(=O)N(C)C2CCCCC2)c([N+](=O)[O-])n1,> 0.0461
16,Cc1ccc(C2=NOC(=O)/C2=C\c2ccc(C)o2)cc1,0.0363
17,Cc1ccc(NC(=O)C2COc3ccccc3O2)c(C)c1 (centres undefined),0.033
18,CSc1nc(N2CCOCC2)c2c(c1C#N)CC(C(C)C)OC2 (centres undefined),< 0.0002
19,C(=C\c1ccncc1)/c1ccccc1,0.0112
20,Nc1nc(NCCO)nc(N2CCCCCC2)c1[N+](=O)[O-],> 0.0444
21,N#Cc1cc2cc3c(cc2nc1SCC(=O)N1CCOCC1)OCO3,0.0049
22,CC(C)(C)CN1CCN(CCCc2ccccc2)C(CCO)C1 (centres undefined),0.0435
23,CNC(=O)CNC(=O)Nc1ccc(C)cc1,> 0.0332
24,CN(Cc1ccccc1)C(=O)COC(=O)c1cc2ccccc2oc1=O,> 0.0527

row,SMILES,solubility kinetic [mg/mL]
1,CN(C(=O)CN1C(=O)c2ccccc2S1(=O)=O)C1CCCCC1,> 0.0505
2,CC(=O)c1c(C)n(-c2ccc(Cl)cc2)c2ccc(O)cc12,< 0.0006
3,CCOc1ccc(NC(=O)COc2ccc3c(c2)OCO3)cc1,0.0057
4,CC(=O)Cc1nsc(Nc2cccc(C)c2)n1,0.0305
5,CC(=O)N1CCN(c2ccccc2NC(=O)c2ccc(C#N)cc2F)CC1,0.0526
6,Cn1c(NNC(=O)c2c(F)cccc2F)cc(=O)n(C)c1=O,> 0.0465
7,CNn1cnc2ccsc2c1=O,> 0.0272
8,Cc1cc(C)cc(NC(=O)N2C3CCCC2CC(NC(=O)C2CC2)C3)c1 (centres undefined),0.0016
9,Cc1ccc(O)c(Nc2nc(-c3ccccc3)nc3ccccc23)c1,< 0.0002
10,COC(=O)[C@H](CC(C)C)NC(=O)N1CCC(C)CC1,> 0.0406
11,Cc1ccccc1NCc1ccc([N+](=O)[O-])s1,0.0137
12,O=C(Cc1c(F)cccc1Cl)Nc1ccccn1,0.0302
13,Cc1ccc(NC(=O)c2cc(C)no2)cc1,0.0262
14,Cc1ccc(O)c(NC(=S)NC(=O)Cc2ccc(Cl)cc2)c1,0.0013
15,CCN(CC)C(=O)c1cc(Cl)ccn1,0.0268
16,Cc1cc(Cl)nc(Cl)c1C(=O)NC(=O)NCCC(C)C,0.0347
17,CCc1ccc(CN(C)Cc2nc(COc3ccccc3)no2)nc1,0.0367
18,Cc1cc2cccc(C)c2nc1SCC(=O)NC1CCCCC1,< 0.0004
19,CCN(CC)c1ccc(Nc2nc(-c3cccnc3)cs2)cc1,< 0.0002
20,Cc1ccc(NC(=O)CSc2cccc[n+]2[O-])c([N+](=O)[O-])c1,> 0.0479
21,CCOCC(=O)Nc1cc(C)on1,0.0228
22,CC(C)(C)c1ccc(C(=O)NCC(=O)NCc2ccccn2)cc1,0.0429
23,O=S(=O)(Nc1ccc(N2CCCCC2)cc1)c1ccc(F)cc1F,0.0413
24,Cn1c(NNC(=O)c2ccccc2F)cc(=O)n(C)c1=O,> 0.0438

row,SMILES,solubility kinetic [mg/mL]
1,O=C1CN(C(=O)c2ccccc2Cl)c2ccccc2N1,> 0.043
2,COCC1CCCN(C(=O)c2ccc3oc(C(C)C)nc3c2)C1 (centres undefined),0.0422
3,CC(C)c1ccccc1NC(=O)c1ccc2ncsc2c1,0.021
4,O=C(CCCc1ccccc1)Nc1nccs1,0.0285
5,COC(=O)c1ccc2c(=O)n(-c3ccc(OC)cc3)c(=S)[nH]c2c1,0.0015
6,O=C(Cc1ccc(O)cc1)NCCNC(=S)NCc1ccccc1,0.0503
7,Cn1cnc(S(=O)(=O)Nc2ccccc2C(=O)NCC2CC2)c1,> 0.0502
8,Cc1ccc(S(=O)(=O)N2CCOCC2)cc1C(=O)OCC(=O)NC1CCCC1,> 0.0616
9,Cn1c(=S)[nH]c2scc(-c3cccs3)c2c1=O,> 0.0421
10,Cn1c(=O)c2c(ncn2CC(=O)OCC(=O)Nc2cc(Cl)ccc2C#N)n(C)c1=O,0.0632
11,CCOc1ccc(S(=O)(=O)N(CC)CC)cc1N,> 0.0409
12,O=C(/C=C/c1ccccc1)N1CCOCC1,> 0.0326
13,CCC(CC)N1CCN(C(=O)c2cc(OC)c(OC)c(OC)c2)CC1,> 0.0526
14,COCCNC(=O)c1cc2c(=O)[nH]c3ccccc3c2s1,0.0032
15,COc1cc2c(C#N)c(N3CCc4ccccc4C3)nc(N)c2c(N)n1,0.0016
16,COC(=O)NC1(C(F)(F)F)C(=O)Nc2c1c(=O)n(C)c(=O)n2C (centres undefined),0.0473
17,COc1ccc(C(=O)N/N=C/c2cccnc2)cc1,> 0.0383
18,CCCn1c(S(=O)(=O)O)nc2ccccc21,> 0.036
19,COc1ccc(Nc2ncnc3c2c(C)c(C)n3CCO)cc1,> 0.0469
20,CNC(=S)N(CCCO)Cc1cc2cc3c(cc2[nH]c1=O)OCO3,0.0082
21,CC1CCCCC1NC(=O)COC(=O)c1ccc2c(c1)NC(=O)CS2 (centres undefined),0.0098
22,CCC(Oc1ccccc1)C(=O)NCCCN1CCOCC1 (centres undefined),> 0.046
23,Cc1ccc(-c2nc3ccccc3c(=O)o2)cc1,0.0012
